Results reported in patent US7605272B2, “IGF-1R inhibitor” (Kyowa Hakko Kirin Co., Ltd., priority 2005, dated 2009).
Where a name gives a salt, the structure may show the parent alone. Read-outs that look alike come from different tables or passages of the source.

Key:
NCI-H929 = assay: Cytostatic activity on human multiple myeloma cell line NCI-H929 (WST-1); format: cell-based; settings: for inhibition at 1 µM / inhibition at 10 µM: Homo sapiens, NCI-H929, 72 h; for inhibition at 1 µM: read-out: cytostatic rate (%) H929 (1 μmol/L); for inhibition at 10 µM: read-out: cytostatic rate (%) H929 (10 μmol/L)
Outline: (§1)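 Cytostatic rate is 100 minus % growth relative to DMSO-only wells (100%) and blank wells (0%), read by WST-1 absorbance at 450/690 nm after 2 h. Compound at 1 or 10 μmol/L final was applied for 72 h at 37 °C to cells seeded 24 h earlier.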

IGF-1R = molecular target: T1, IGF-1R (Homo sapiens, UniProt P08069); assay: IGF-1R inhibitory activity (kinase reaction, time-resolved fluoroimmunoassay); format: biochemical; settings: test compound 10 μmol/L
T1 construct: purchased Upstate Co. 14-465
T1 sequence (P08069 959-1367 limits assumed): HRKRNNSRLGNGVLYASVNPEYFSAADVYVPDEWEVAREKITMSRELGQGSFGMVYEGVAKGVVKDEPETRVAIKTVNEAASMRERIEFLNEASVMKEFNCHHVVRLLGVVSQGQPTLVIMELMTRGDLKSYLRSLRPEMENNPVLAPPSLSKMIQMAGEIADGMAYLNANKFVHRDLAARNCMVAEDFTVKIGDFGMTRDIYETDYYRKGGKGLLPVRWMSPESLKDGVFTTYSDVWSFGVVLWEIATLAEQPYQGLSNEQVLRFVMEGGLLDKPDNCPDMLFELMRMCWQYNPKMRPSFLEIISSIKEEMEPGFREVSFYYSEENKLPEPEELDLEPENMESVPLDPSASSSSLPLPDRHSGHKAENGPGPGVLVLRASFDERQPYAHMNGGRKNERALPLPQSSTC
Outline: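 Compounds were tested at a single 10 μmol/L concentration. Each was incubated with recombinant IGF-1R (200 μg/L), 10 mmol/L ATP, MgCl2/MnCl2 and Na3VO4 (pH 7.5) on immobilized poly(Glu-Tyr) peptide for 30 min at 24° C. Eu-anti-phosphotyrosine time-resolved fluorescence (340/615 nm) gave relative activity against no-compound and no-enzyme wells, reported as % inhibition.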

KMS-11 = assay: Cytostatic activity on human multiple myeloma cell line KMS-11 (WST-1); format: cell-based; settings: for inhibition at 1 µM / inhibition at 10 µM: Homo sapiens, KMS-11, 72 h; for inhibition at 1 µM: read-out: cytostatic rate (%) KMS-11 (1 μmol/L); for inhibition at 10 µM: read-out: cytostatic rate (%) KMS-11 (10 μmol/L)
Outline: as §1

[1] = IGF-1R active recombinant enzyme
[2] = NCI-H929 cells, test compound 1 μmol/L, WST-1
[3] = KMS-11 cells, test compound 1 μmol/L, WST-1

| Structure (SMILES) | inhibition at 10 µM (IGF-1R; [1]) [%] | inhibition at 1 µM (NCI-H929; 1 μmol/L, 72 hours) [%] | inhibition at 1 µM (KMS-11; 1 μmol/L, 72 hours) [%] | inhibition at 10 µM (NCI-H929; 10 μmol/L, 72 hours) [%] | inhibition at 10 µM (KMS-11; 10 μmol/L, 72 hours) [%] | also measured |
| --- | --- | --- | --- | --- | --- | --- |
| Cc1ccsc1C(=O)Nc1cc(C(=O)N2CCN(C=O)CC2)ccc1/C=C/c1n[nH]c2ccccc12 [Compound 218, (E)-N-{2-[2-(1H-indazol-3-yl)vinyl]-5-(4-formylpiperazin-1-ylcarbonyl)phenyl}-3-methylthiophene-2-carboxamide hydrochloride] | 98.6 | 112 | 106 | – | – | – |
| CC(C)C(=O)Nc1ccccc1/C=C/c1n[nH]c2ccccc12 [Compound 18, (E)-N-{2-[2-(1H-indazol-3-yl)vinyl]phenyl}isobutylamide] | – | – | – | – | – | cytostatic rate (%) H929 (10 μmol/L) (NCI-H929; 10 μmol/L, 72 hours): 112.7%; inhibitory activity (%) at 10 μmol/L (IGF-1R; [1]): 96.4%; cytostatic rate (%) KMS-11 (10 μmol/L) (KMS-11; 10 μmol/L, 72 hours): 124.1% |
| O=C1c2ccccc2C(=O)N1c1cc2c(cc1/C=C/c1n[nH]c3ccccc13)OCO2 [Compound 151, (E)-N-2-{6-[2-(1H-indazol-3-yl)vinyl]benzo[1,3]dioxol-5-yl}isoindole-1,3-dione] | 100 | – | – | 104 | 83.2 | – |
| OCCOc1ccccc1/C=C/c1n[nH]c2ccccc12 [Compound 134, (E)-2-{2-[2-(1H-indazol-3-yl)vinyl]phenoxy}ethanol] | 93.4 | – | – | 92.8 | 52.5 | – |
| Nc1ccc2c(c1)C(=O)N(c1ccccc1/C=C/c1n[nH]c3ccccc13)C2=O [Compound 193, (E)-5-amino-2-{2-[2-(1H-indazol-3-yl)vinyl]phenyl}isoindole-1,3-dione] | 100 | – | – | 124 | 167 | – |
| Cc1ccsc1C(=O)Nc1cc(C(=O)N2CCC(N)CC2)ccc1/C=C/c1n[nH]c2ccccc12 [Compound 111, (E)-N-{5-(4-aminopiperidin-1-ylcarbonyl)-2-[2-(1H-indazol-3-yl)vinyl]phenyl}-3-methylthiophene-2-carboxamide] | – | – | – | 120 | 112 | inhibition at 10 µM (IGF-1R): 98.1% |
| COCCN(CCN1CCOCC1)c1ccc(/C=C/c2n[nH]c3ccccc23)c(NC(=O)c2sccc2C)c1 [Compound 267, (E)-N-{2-[2-(1H-indazol-3-yl)vinyl]-5-[N-(2-methoxyethyl)-2-(morpholinoethyl)amino]phenyl}-3-methylthiophene-2-carboxamide] | – | – | – | – | – | cytostatic rate (%) H929 (1 μmol/L) (NCI-H929; 1 μmol/L, 72 hours): 118.1%; inhibitory activity (%) at 10 μmol/L (IGF-1R; [1]): 100.3%; cytostatic rate (%) KMS-11 (1 μmol/L) (KMS-11; 1 μmol/L, 72 hours): 133.8% |
| O=C(Nc1ccccc1/C=C/c1n[nH]c2ccccc12)C1CCC1 [Compound 44, (E)-N-{2-[2-(1H-indazol-3-yl)vinyl]phenyl}cyclobutanecarboxamide] | 98 | – | – | 115 | 113 | – |
| O=C(Nc1ccccc1/C=C/c1n[nH]c2ccccc12)C1CCCC1 [Compound 24, (E)-N-{2-[2-(1H-indazol-3-yl)vinyl]phenyl}cyclopentanecarboxamide] | 97.4 | – | – | 116 | 110 | – |
| O=C(Nc1ccccc1/C=C/c1n[nH]c2ccccc12)c1cccc([N+](=O)[O-])c1 [Compound 64, (E)-N-{2-[2-(1H-indazol-3-yl)vinyl]phenyl}-3-nitrobenzamide] | 97 | – | – | 108 | 124 | – |
| CC(=O)N1CCN(C(=O)c2ccc(/C=C/c3n[nH]c4ccccc34)c(NC(=O)c3cccn3C)c2)CC1 [Compound 91, (E)-N-{5-(4-acetylpiperazin-1-ylcarbonyl)-2-[2-(1H-indazol-3-yl)vinyl]phenyl}-1-methyl-1H-pyrrole-2-carboxamide] | – | – | – | 115 | 144 | inhibition at 10 µM (IGF-1R): 98.7% |
| O=C(Nc1ccccc1/C=C/c1n[nH]c2ccccc12)c1cc2sccc2s1 [Compound 57, (E)-N-{2-[2-(1H-indazol-3-yl)vinyl]phenyl}thieno[3,2-b]thiophene-2-carboxamide] | 98.3 | – | – | 117 | 141 | – |
| COCCOc1ccc(C(=O)Nc2ccccc2/C=C/c2n[nH]c3ccccc23)cc1 [Compound 78, (E)-N-{2-[2-(1H-indazol-3-yl)vinyl]phenyl}-4-(2-methoxyethoxy)benzamide] | 100 | – | – | 114 | 107 | – |

Continued, in another order:

| inhibition at 10 µM (IGF-1R; [1]) [%] | Structure (SMILES) | inhibition at 1 µM (NCI-H929; 1 μmol/L, 72 hours) [%] | inhibition at 1 µM (KMS-11; 1 μmol/L, 72 hours) [%] | inhibition at 10 µM (NCI-H929; 10 μmol/L, 72 hours) [%] | inhibition at 10 µM (KMS-11; 10 μmol/L, 72 hours) [%] | also measured |
| --- | --- | --- | --- | --- | --- | --- |
| 102 | COc1c(OCC(=O)N2CCOCC2)ccc(/C=C/c2n[nH]c3ccccc23)c1NC(=O)c1sccc1C [Compound 335, (E)-N-{6-[2-(1H-indazol-3-yl)vinyl]-2-methoxy-3-(2-morpholin-4-yl-2-oxoethoxy)phenyl}-3-methylthiophene-2-carboxamide] | – | – | – | – | inhibition at 1 µM (NCI-H929; [2]): 117%; inhibition at 1 µM (KMS-11; [3]): 110% |
| 100 | COCCCN(CCO)C(=O)c1ccc(/C=C/c2n[nH]c3ccccc23)c(NC(=O)c2sccc2C)c1 [Compound 256, (E)-N-{5-[N-(2-hydroxyethyl)-N-(3-methoxypropyl)carbamoyl]-2-[2-(1H-indazol-3-yl)vinyl]phenyl}-3-methylthiophene-2-carboxamide] | 122 | 105 | – | – | – |
| 99.3 | Cc1ccsc1C(=O)Nc1cc(C(=O)N2CC[C@@H](O)C2)ccc1/C=C/c1n[nH]c2ccccc12 [Compound 220, (E)-(R)—N-{2-[2-(1H-indazol-3-yl)vinyl]-5-(3-hydroxypyrrolidin-1-ylcarbonyl)phenyl}-3-methylthiophene-2-carboxamide hydrochloride] | 110 | 97.9 | – | – | – |
| 102 | COCCN(C)C(=O)c1ccc(/C=C/c2n[nH]c3ccccc23)c(NC(=O)c2sccc2C)c1 [Compound 260, (E)-N-{2-[2-(1H-indazol-3-yl)vinyl]-5-[N-(2-methoxyethyl)-N-methylcarbamoyl]phenyl}-3-methylthiophene-2-carboxamide] | 119 | 118 | – | – | – |
| 100 | Nc1cccc2c1C(=O)N(c1cc(CN3CCN(CCO)CC3)ccc1/C=C/c1n[nH]c3ccccc13)C2=O [Compound 307, (E)-4-amino-2-{5-[4-(2-hydroxyethyl)piperazin-1-ylmethyl]-2-[2-(1H-indazol-3-yl)vinyl]phenyl}isoindole-1,3-dione] | – | – | – | – | inhibition at 1 µM (NCI-H929; [2]): 114%; inhibition at 1 µM (KMS-11; [3]): 110% |
| 97.4 | COc1c(OCCN2CCCC2=O)ccc(/C=C/c2n[nH]c3ccccc23)c1NC(=O)c1sccc1C [Compound 337, (E)-N-{6-[2-(1H-indazol-3-yl)vinyl]-2-methoxy-3-[2-(2-oxopyrrolidin-1-yl)ethoxy]phenyl}-3-methylthiophene-2-carboxamide] | – | – | – | – | inhibition at 1 µM (NCI-H929; [2]): 120%; inhibition at 1 µM (KMS-11; [3]): 121% |
| 101 | COc1ccc(/C=C/c2n[nH]c3ccccc23)c(NC(=O)c2sccc2C)c1OC [Compound 261, (E)-N-{6-[2-(1H-indazol-3-yl)vinyl]-2,3-dimethoxyphenyl}-3-methylthiophene-2-carboxamide] | 115 | 121 | – | – | – |
| 103 | COc1c(OCCCN2CCC[C@H]2CO)ccc(/C=C/c2n[nH]c3ccccc23)c1NC(=O)c1sccc1C [Compound 340, (E)-(s)-N-{3-[3-(2-hydroxymethylpyrrolidin-1-yl)propoxy]-6-[2-(1H-indazol-3-yl)vinyl]-2-methoxyphenyl}-3-methylthiophene-2-carboxamide] | – | – | – | – | inhibition at 1 µM (NCI-H929; [2]): 121%; inhibition at 1 µM (KMS-11; [3]): 118% |
| 100 | Cc1ccsc1C(=O)Nc1ccc(N2CCN(C)CC2)cc1/C=C/c1n[nH]c2ccccc12 [Compound 228, (E)-N-{2-[2-(1H-indazol-3-yl)vinyl]-4-(4-methylpiperazin-1-yl)phenyl}-3-methylthiophene-2-carboxamide] | 114 | 58 | – | – | – |
| 104 | Cc1ccsc1C(=O)Nc1cc(N2CCN(CCO)CC2)ccc1/C=C/c1n[nH]c2ccccc12 [Compound 273, (E)-N-{5-[4-(2-hydroxyethyl)piperazin-1-yl]-2-[2-(1H-indazol-3-yl)vinyl]phenyl}-3-methylthiophene-2-carboxamide] | 115 | 111 | – | – | – |
| 102 | Cc1ccsc1C(=O)Nc1cc(C(=O)N(CCO)CCN2CCOCC2)ccc1/C=C/c1n[nH]c2ccccc12 [Compound 259, (E)-N-{5-[N-(2-hydroxyethyl)-N-(2-morpholinoethyl)carbamoyl]-2-[2-(1H-indazol-3-yl)vinyl]phenyl}-3-methylthiophene-2-carboxamide] | 118 | 104 | – | – | – |
| 114 | COc1c(OCCCN2CC[C@@H](N)C2)ccc(/C=C/c2n[nH]c3ccccc23)c1NC(=O)c1sccc1C [Compound 346, (R)-(E)-N-{3-[3-(3-aminopyrrolidin-1-yl)propoxy]-6-[2-(1H-indazol-3-yl)vinyl]-2-methoxyphenyl}-3-methylthiophene-2-carboxamide] | 114 | 97.2 | – | – | – |
